{
  "source": "patent US20260327196A1",
  "about": "“AMINO ACID DERIVATIVES FOR DETECTING NEUROLOGICAL DISORDERS” (Amydis, Inc., priority 2023, published 2026)",
  "key": {"[1]": {"tested_on": "aggregates in ALS ex vivo retina cadaver tissue", "test": "Ex vivo human cadaver imaging study, flat mounted ALS retinas stained with compound 1", "details": "60 μM compound 1, 30 minutes at room temperature, confocal microscope", "method": "An ex vivo human cadaver imaging study was carried out using compound 1. Flat mounted retinas extracted from ALS (amyotrophic lateral sclerosis) human cadavers were stained with compound 1 (60 μM) and images were collected.\nThe following staining protocol was adopted in this study:\n• (i) Fix tissue in room temperature 4% PFA for 20 minutes, wash, permeabilize, and block (5% goat serum in PBST for 1 hour) • (ii) Incubate with 60 μM compound 1 in 1×PBS for 30 minutes at room temperature • (iii) Wash with PBS (3 times for 5 minutes) • (iv) Mount tissue using antifade Prolong Glass mounting media. • (v) Image with confocal microscope • (vi) Add lambda scanning imaging protocol to determine the emission peak."}, "aSyn": {"target": "aSyn (Homo sapiens, UniProt P37840)", "test": "Fluorescence emission / binding of compound 1 to aggregated amyloidogenic protein (Table A)", "details": "4 μM compound 1, 5 μM aggregated protein, 1×PBS pH 7.4", "method": "(§1) An in vitro study was carried out to characterize the fluorescent properties of compound 1 and its binding to amyloidogenic protein aggregates (e.g., Aβ, aSyn, TTR, and TDP43).\n(§2) Compound 1 (4 μM) was prepared with or without 5 μM aggregated amyloidogenic protein in 1× phosphate-buffered saline (PBS). The emission spectra of compound 1 for each sample were collected according to the following protocol and the corresponding fold increases (compound 1+amyloid aggregate/compound 1) were calculated.\n(§3) The following protocol was adopted in this study: • 1. Turn on the fluorimeter and let warm up for-30 minutes • 2. Allow aggregated amyloid protein (100 μM) solution to warm to room temperature • 3. Allow the compound 1 to warm to room temperature • 4. Prepare 1×PBS, pH 7.4. • 5. Prepare blank solution of DMSO/PBS (2.42 μl DMSO in 147.6 μl PBS, pH 7.4) • 6. Prepare a 250 μM solution of compound 1 in DMSO. Keep samples in the dark at room temperature. • 7. Prepare a 4 μM compound 1 solution with and without 5 μM aggregated amyloid protein • 8. Measure the emission scan of compound 1+aggregated amyloid protein solution using 1) 450 nm and 2) 488 nm as the excitation wavelength. Record the emission sweep from 450 nm-750 nm. Determine Amax from these spectra • 9. Repeat step 8 for 4 μM compound 1 without amyloid protein • 10. Export the data and plot relative fluorescence intensity (RFI) versus wavelength for emission spectra"}, "Aβ": {"target": "Aβ (Homo sapiens, UniProt P05067)", "sequence (P05067 672-713 limits assumed)": "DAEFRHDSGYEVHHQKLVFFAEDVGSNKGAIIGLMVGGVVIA", "test": "Fluorescence emission / binding of compound 1 to aggregated amyloidogenic protein (Table A)", "details": "4 μM compound 1, 5 μM aggregated protein, 1×PBS pH 7.4", "method": "as §1, §2, §3"}, "TDP43": {"target": "TDP43 (Homo sapiens, UniProt Q13148)", "sequence (Q13148 whole entry)": "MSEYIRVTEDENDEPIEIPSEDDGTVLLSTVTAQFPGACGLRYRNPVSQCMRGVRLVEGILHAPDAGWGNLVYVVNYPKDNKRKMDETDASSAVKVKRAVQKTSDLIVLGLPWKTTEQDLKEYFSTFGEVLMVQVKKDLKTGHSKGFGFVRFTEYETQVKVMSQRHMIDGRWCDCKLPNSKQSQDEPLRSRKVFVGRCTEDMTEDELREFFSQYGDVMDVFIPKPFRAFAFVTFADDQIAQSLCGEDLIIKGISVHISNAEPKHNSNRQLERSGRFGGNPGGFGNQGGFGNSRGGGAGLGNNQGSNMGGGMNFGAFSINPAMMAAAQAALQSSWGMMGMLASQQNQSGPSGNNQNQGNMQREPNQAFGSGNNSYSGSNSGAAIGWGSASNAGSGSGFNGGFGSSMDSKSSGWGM", "test": "Fluorescence emission / binding of compound 1 to aggregated amyloidogenic protein (Table A)", "details": "4 μM compound 1, 5 μM aggregated protein, 1×PBS pH 7.4", "method": "as §1, §2, §3"}, "TTR": {"target": "TTR (Homo sapiens, UniProt P02766)", "test": "Fluorescence emission / binding of compound 1 to aggregated amyloidogenic protein (Table A)", "details": "4 μM compound 1, 5 μM aggregated protein, 1×PBS pH 7.4", "method": "as §1, §2, §3"}, "[2]": {"tested_on": "amyloidogenic protein aggregates (e.g., Aβ, aSyn, TTR, and TDP43)", "test": "In vitro characterization: binding to amyloidogenic protein aggregates", "details": "4 μM compound 1, 5 μM aggregated protein; excitation 450 and 488 nm", "method": "as §1, §2\nas §3, with “Repeat step 8 for 4 μM compound 1 without amyloid protein • 10.” left out"}, "[3]": {"tested_on": "Hyperphosphorylated three repeat tau protein", "test": "In vivo detection in TBI mouse model, fluorescent imaging of retinas", "details": "intravenous administration, removed retinas, fluorescence microscope; wild type mice of comparable age: no immunostaining", "method": "Model mice having a target protein, for example, an amyloid beta protein, or a phosphorylated tau protein, or an accumulated mass thereof, are administered compound 1, 2, or 3 intravenously. Retinas of the mice are removed and are mounted on slides. The retinas are washed with PBS 2 times for 5 minutes. A solution of 98% formic acid is added-5 minutes for antigen retrieval. The sampled are washed with distilled water-2 times for 5 minutes. The samples are equilibrated in 1×PBS for 15 minutes, then blocked with 10% goat/donkey serum in 1×PBST (depending on antibodies) for 1 hour. Samples are covered in foil, and washed with 1×PBS 3 times for 5 minutes each. Samples are stained with DAPI (300 nM or 100 ng/ml) in dark for 10 minutes, then tissues are washed 3×10 minutes with PBS. Antifade DAKO mounting medium is added, and coverslip and kept under foil until imaging.\nFluorescent imaging study of the samples is conducted on a Leica DMI 4000B microscope (Leica, Germany) equipped with a TCS SPE camera and Leica 10, 20 and 40× objectives. The following lasers are used to visualize fluorescent probes pertaining to DAPI (blue, nuclear stain), compound 1, 2, or 3 (green) and hyperphosphorylated tau (red): 408, 488 and 568 nm. Z-stacked images are taken at 40× at 0.5 μm increments to visualize the entire thickness of the tissue."}, "[4]": {"tested_on": "amyloid-like deposits in the retina", "test": "In vivo NHP imaging study, fundus autofluorescence (FAF)", "set-up": "species or system non-human primates (monkeys)", "details": "5.13 mg/kg IV bolus", "method": "An in vivo imaging study was carried out in non-human primates (NHP).\nCompound 1 was administered to ketamine xylazine-anesthetized monkeys as a single bolus intravenous dose according to Table B. In-vivo fundus autofluorescence (FAF) images were collected prior to injection and at 2-, 5-, 15-, and 30-minutes post injection.\nThe compound 1 solution for injection (7 mg/mL compound 1 in 13 mM sodium bicarbonate buffered at pH 4.2) was prepared according to the following steps: • 1. Add 3 g sodium bicarbonate to 100 mL water (0.03 g/ml) • 2. Weigh out 4 g of PEG-400 (d. 1.13 g/mL) into an amber, or light isolated, 20 mL storage container containing a stir bar • 3. Add 200 mg of compound 1-HCl to the PEG-400 • 4. Add 20 mL water and stir until clear (~10 min) • 5. Add dropwise 0.6 ml of 0.03 g/ml sodium bicarbonate solution and stir 10 min (PH ~3.8) • 6. Add dropwise another 0.2 ml of the sodium bicarbonate solution and stir 10 min to adjust pH to 4.2 to provide a clear red solution • 7. Filter through 1 inch 0.22 μm diameter syringe filter to give a red clear solution into a presterilized sealed 20 mL amber glass vial • 8. Test the pH to confirm ~4.2 • 9. Transfer the remaining formulation into a 5 mL presterilized amber glass vial and place into a −20° C. freezer for analytical testing. The vial can be stored for up to 1 hour prior to use. • 10. Inject with a sterile syringe attached to a 0.22-micron PVDF membrane filter and needle. Use within 1 hour."}, "[5]": {"details": "FAF images at 2, 5, 15 and 30 minutes post injection"}},
  "note": "Where a name gives a salt, the structure may show the parent alone.",
  "data": [
    {"smiles": "N#C/C(=C\\c1ccc2cc(N3CCCCC3)ccc2c1)C(=O)NCCOCCOCCOC(=O)CN", "note": "[Compound 1, (E)-2-(2-(2-(2-cyano-3-(6-(piperidin-1-yl)naphthalen-2-yl)acrylamido)ethoxy)ethoxy)ethyl glycinate hydrochloride salt]", "values": [
      {"measurement": "labeling of aggregates in ALS retina", "setting": "[1]", "value": "labeled aggregates in ALS ex vivo retina cadaver tissue"},
      {"measurement": "Fold (fold increase, compound 1+amyloid aggregate/compound 1)", "setting": "aSyn; excitation 450 nm", "value": 174.1, "unit": "fold"},
      {"measurement": "λmax", "setting": "aSyn; excitation 450 nm", "value": 530, "unit": "nm"},
      {"measurement": "Fold (fold increase, compound 1+amyloid aggregate/compound 1)", "setting": "aSyn; excitation 488 nm", "value": 110.8, "unit": "fold"},
      {"measurement": "λmax", "setting": "aSyn; excitation 488 nm", "value": 538, "unit": "nm"},
      {"measurement": "Fold (fold increase, compound 1+amyloid aggregate/compound 1)", "setting": "Aβ; excitation 450 nm", "value": 25.3, "unit": "fold"},
      {"measurement": "λmax", "setting": "Aβ; excitation 450 nm", "value": 550, "unit": "nm"},
      {"measurement": "Fold (fold increase, compound 1+amyloid aggregate/compound 1)", "setting": "Aβ; excitation 488 nm", "value": 17.9, "unit": "fold"},
      {"measurement": "λmax", "setting": "Aβ; excitation 488 nm", "value": 555, "unit": "nm"},
      {"measurement": "Fold (fold increase, compound 1+amyloid aggregate/compound 1)", "setting": "TDP43; excitation 450 nm", "value": 6.1, "unit": "fold"},
      {"measurement": "λmax", "setting": "TDP43; excitation 450 nm", "value": 544, "unit": "nm"},
      {"measurement": "Fold (fold increase, compound 1+amyloid aggregate/compound 1)", "setting": "TDP43; excitation 488 nm", "value": 4.70, "unit": "fold"},
      {"measurement": "λmax", "setting": "TDP43; excitation 488 nm", "value": 529, "unit": "nm"},
      {"measurement": "Fold (fold increase, compound 1+amyloid aggregate/compound 1)", "setting": "TTR; excitation 450 nm", "value": 11.5, "unit": "fold"},
      {"measurement": "λmax", "setting": "TTR; excitation 450 nm", "value": 543, "unit": "nm"},
      {"measurement": "Fold (fold increase, compound 1+amyloid aggregate/compound 1)", "setting": "TTR; excitation 488 nm", "value": 5.9, "unit": "fold"},
      {"measurement": "λmax", "setting": "TTR; excitation 488 nm", "value": 549, "unit": "nm"},
      {"measurement": "binding to the aggregated amyloidogenic proteins in vitro", "setting": "[2]", "value": "successfully bound to the aggregated amyloidogenic proteins in vitro"},
      {"measurement": "detection of hyperphosphorylated three repeat tau in the retina (fluorescent signal)", "setting": "[3]", "value": "Hyperphosphorylated three repeat tau protein is detected in the retina, producing a detectable fluorescent signal"},
      {"measurement": "hyperfluorescence in vasculature and retinal tissue following injection", "setting": "[4]; [5]", "value": "hyperfluorescence was observed within minutes in the vasculature following injection and subsequently in the retinal tissue"},
      {"measurement": "labeling of amyloid-like deposits in the retina", "setting": "[4]; [5]", "value": "labeled amyloid-like deposits in the retina"},
      {"measurement": "clearance of signal from the vascular system", "setting": "[4]; FAF images up to 30 minutes post injection", "value": "signal cleared quickly from the vascular system"}
    ]},
    {"smiles": "CC(C)(C)OC(=O)NCC(=O)OCCOCCOCCNC(=O)/C(C#N)=C/c1ccc2cc(N3CCCCC3)ccc2c1", "note": "[Compound 2, (E)-2-(2-(2-(2-cyano-3-(6-(piperidin-1-yl)naphthalen-2-yl)acrylamido)ethoxy)ethoxy)ethyl (tert-butoxycarbonyl)glycinate]", "values": [
      {"measurement": "detection of hyperphosphorylated three repeat tau in the retina (fluorescent signal)", "setting": "[3]", "value": "Hyperphosphorylated three repeat tau protein is detected in the retina, producing a detectable fluorescent signal"}
    ]},
    {"smiles": "C[C@H](N)C(=O)OCCOCCOCCNC(=O)/C(C#N)=C/c1ccc2cc(N3CCCCC3)ccc2c1", "note": "[Compound 3, (E)-2-(2-(2-(2-cyano-3-(6-(piperidin-1-yl)naphthalen-2-yl)acrylamido)ethoxy)ethoxy)ethyl L-alaninate hydrochloride salt]", "values": [
      {"measurement": "detection of hyperphosphorylated three repeat tau in the retina (fluorescent signal)", "setting": "[3]", "value": "Hyperphosphorylated three repeat tau protein is detected in the retina, producing a detectable fluorescent signal"}
    ]}
  ]
}
